Assay [1] concerns the target 5-HT1. In words: Radioligand binding, tritiated 5-HT, rat frontal cortex homogenate (total 5-HT1). Conditions: displacement of tritiated 5-HT. As to the method: Male Sprague-Dawley rats (150-200 g) were sacrificed and the brains were rapidly removed and placed on ice. The frontal cortext, including the portion immediately above the striatum and part of the parietal cortex were dissected. Tissues from 6-10 rats were pooled and homogenized in at least 40 volumes of tris-HCI buffer (0.05 M, pH 7.4) using a Brinkman Polytron (setting 5 for 20 seconds). This homogenate was centrifuged (48,000 G for 10 minutes), the pellet resuspended, and the process repeated three more times. Between the second and third washes, the tissue homogenate was incubated for 10 minutes at 37°C. The final pellet was resuspended in 100 volumes of TRIS buffer for use in the binding assay.
Radioligand binding affinity for subtypes of the serotonin receptor was determined by the method of Pedigo, Yamamura, and Nelson, op. cit. Tissue homogenate (0.5 mL) from rat frontal cortex, together with various concentrations of tritiated 5-HT and test compounds were added to glass tubes containing modified tris-HCI buffer to obtain, in each case, a final volume of 2 mL and having the following compositions: 5.7 mM ascorbate, 10 micromolar pargyline, 4mM CaCl2, 50 mM TRIS buffer; pH 7.4 at 37°C.
Each mixture was incubated for 15 minutes at 37°C and then vacuum filtered through Whatman GF/B filters followed by three 5 mL washes with cold TRIS buffer. Radioactivity was extracted overnight in 3 mL of scintillation liquid and measured by liquid scintillation spectrometry (50% efficiency).
Binding parameters for saturation and drug displacement studies were calculated by Scatchard analysis and from Hill plots, respectively.

The test system of assay [2] is spontaneously hypertensive (SH) rat. The assay is described as follows: Blood pressure in spontaneously hypertensive rats (tail cuff), oral dosing. It is filed as in vivo. Conditions: % change in blood pressure.
Method: In another study, a group of spontaneously hypertensive male rats were trained to be restrained in a wire mesh cylinder in a warming box, at least two training cycles being conducted before testing. The rats were warmed for about one-hour prior to blood pressure measurement, the warming box being maintained at a constant temperature of 36°C. An occluding cuff attached to a programmed sphygmomanometer was placed near the base of the tail of each rat and the pressure of the cuff was increased automatically from 0 to 250 millimeters of mercury at a rate of 10 mm Hg pressure per second. The total time for each cycle of inflation and deflation of the cuff was 50 seconds and the interval between cycles was one minute A photocell, placed distally to the cuff, recorded the pulses due to the forward motion of blood flow with each heart beat. As the pressure in the cuff increased, the pulse disappeared completely at the point where the cuff pressure equalled and exceeded the arterial blood pressure. The pulse reappeared during deflation at approximately the same pressure. Five interference free signals were recorded for each rat. Rats with a blood pressure of 180 mm Hg or more during the control period were used in the study.
Blood pressure and heart rate readings were recorded on a Model VII Grass polygraph at various intervals after administration of the test compound. […] For the in vivo test data, SHR refers to spontaneously hypertensive rats, dosed in milligrams per kilogram (mpk), with the data being expressed in the Table in +% changes at a particular dosage range.

Counter-ions that a name gives are not always drawn.

Take `COc1cccc2c1[C@H]1CCN(CCCN3C(=O)CC4(CCCC4)CC3=O)C[C@@H]1C2` (relative stereo) [Example 50, trans-2-(3-(3,3-tetramethylene)glutarimidyl)propyl-5-methoxy-2,3,4,4a,9,9a-hexahydro-1 H-indeno [2,1-c]pyridine hydrochloride]: the IC50 (usually the concentration needed to halve the response being measured) in assay [1] was found to be 279 nM.

With `COc1cccc2c1C1CCN(CCCCN3C(=O)CC4(CCCC4)CC3=O)CC1C2` (centres unmarked) [Example 44, hydrochloride], in assay [1], the IC50 came out at 505 nM.

`Br.O=C(NCCN1CC2Cc3cccc(O)c3C2C1)c1ccc(F)cc1` (centres unmarked) [Example 19, 4-Hydroxy-2-(2-(4-fluorobenzamido)ethyl)-1,2,3,3a,8,8a-hexahydroindeno[1,2-c]pyrrole hydrobromide]: the IC50 in assay [1] was determined as 262 nM. Moreover, the “In Vivo Data SHR (mpk, p.o. dose)” value in assay [2] (30 mg/kg p.o.) is -9% at 30 mg/kg.

Take `O=C1c2ccccc2S(=O)(=O)N1CCCCN1CC2Cc3cccc(O)c3C2C1` (centres unmarked) [Example 22, 4-Hydroxy-2-(4-(2-(1.2-benzisothiazolin-3-one-1,1-dioxide))butyl)-1,2,3,3a,8,8a-hexahydroindeno-[1,2-c]pyrrole hydrochloride]: the IC50 in assay [1] worked out at 1090 nM. The “In Vivo Data SHR (mpk, p.o. dose)” value in assay [2] (30 mg/kg p.o.) is reported as -16% at 30 mg/kg.

`O=C1CC2(CCCC2)CC(=O)N1CCCN1CC2Cc3cccc(O)c3C2C1` (centres unmarked) [Example 27, 2-(3-(3,3-tetramethylene)glutarimidyl)propyl-4-hydroxy-1,2,3,3a,8,8a-hexahydroindeno[1,2-c]pyrrole hydrobromide] had an IC50 in assay [1] of 3320 nM.

As for `COc1cccc2c1C1CCN(CCNC(=O)c3ccc(F)cc3)CC1C2` (stereo not drawn) [Example 58, trans-2-(2-(4-fluorobenzamido)ethyl)-5-methoxy-2,3,4,4a,9.9a-hexahydro-1H-indeno[2,1-c]pyridine hydrochloride], the IC50 in assay [1] is 43 nM. In addition, the “In Vivo Data SHR (mpk, p.o. dose)” value in assay [2] (10 mg/kg p.o.) is recorded as -18% at 10 mg/kg.

`COc1cccc2c1C1CN(CCCCN3C(=O)CC4(CCCC4)CC3=O)CC1C2` (centres unmarked) [Example 7, 2-(4-(3,3-tetramethylene)glutarimidyl)butyl-4-methoxy-1,2,3,3a,8,8a-hexahydoindeno[1,2-c]pyrrole hydrochloride] registered an IC50 in assay [1] of 218 nM. Further, the “In Vivo Data SHR (mpk, p.o. dose)” value in assay [2] (10 mg/kg p.o.) was -14%; in assay [2] (30 mg/kg p.o.) it was -28%.

As for `O=C1CC2(CCCC2)CC(=O)N1CCCCN1CC2Cc3cccc(O)c3C2C1` (centres unmarked) [Example 20, 2-(4-(3,3-tetramethylene)glutarimidyl)butyl-4-hydroxy-1,2,3,3a,8,8a-hexahydroindeno[1,2-c]pyrrole hydrobromide], in assay [1], the IC50 amounted to 1840 nM.

Take `COc1cccc2c1C1CN(CCCCCN3C(=O)CC4(CCCC4)CC3=O)CC1C2` (centres unmarked) [Example 28, 2-(5-(3,3-tetramethylene)glutarimidyl)pentyl-4-methoxy-1,2,3,3a,8,8a-hexahydroindeno[1,2-c]pyrrole hydrochloride]: the IC50 in assay [1] came to 722 nM.

In assay [1], `COc1cccc2c1C1CN(C[C@@H]3COc4ccccc4O3)CC1C2` (stereo partly drawn) [Example 32, 2R-(1,4-benzodioxanyl-2-methyl)-4-methoxy-1,2,3,3a,8,8a-hexahydroindeno[1,2-c]pyrrole hydrochloride] gave an IC50 of 992 nM. The IC50 values of the last two molecules are within 1.5-fold of each other.

`COc1cccc2c1C1CCN(CCCN3C(=O)CC4(CCCC4)CC3=O)CC1C2` (stereo not drawn) [Example 43, cis-2-(3-(3,3-tetramethylene)glutarimidyl)propyl-5-methoxy-2,3,4,4a,9,9a-hexahydro-1H-indeno[2,1-c] pyridine hydrochloride] displayed an IC50 in assay [1] of 3120 nM. Further, the “In Vivo Data SHR (mpk, p.o. dose)” value in assay [2] (30 mg/kg p.o.) is on record as -17.5% at 30 mg/kg.

In assay [1], `COc1cccc2c1C1CN(C/C=C/CN3C(=O)CC4(CCCC4)CC3=O)CC1C2` (stereo not drawn) [Example 30, 2-(4-(3,3-tetramethylene)glutarimidyl)-trans-but-2-enyl-4-methoxy-1,2,3,3a,8,8a-hexahydroindeno [1,2-c]pyrrole hydrochloride] registered an IC50 of 533 nM. Also, the “In Vivo Data SHR (mpk, p.o. dose)” value in assay [2] (30 mg/kg p.o.) is recorded as -11% at 30 mg/kg.

The molecule `COc1cccc2c1C1CN(C[C@H]3COc4ccccc4O3)CC1C2` (stereo partly drawn) [Example 31, 2S-(1,4-benzodioxanyl-2-methyl)-4-methoxy-1,2,3,3a,8,8a-hexahydroindeno[1,2-c]pyrrole hydrochloride] came in with an IC50 in assay [1] of 457 nM.

In assay [1], `COc1cccc2c1C1CN(CCCN3C(=O)CC4(CCCC4)CC3=O)CC1C2` (centres unmarked) [Example 26, 2-(3-(3,3-tetramethylene)glutarimidyl)propyl-4-methoxy-1,2,3,3a,8,8a-hexahydroindeno[1,2-c]pyrrole hydrochloride] returned an IC50 of 3300 nM. Further, the “In Vivo Data SHR (mpk, p.o. dose)” value in assay [2] (30 mg/kg p.o.) was -23% at 30 mg/kg.

In assay [1], `O=C1CC2(CCCC2)CC(=O)N1CCCCN1CC2Cc3ccc(Cl)c(O)c3C2C1` (centres unmarked) [Example 52, 2-(4-(3,3-Tetramethylene)glutarimidyl)butyl-5-chloro-4-hydroxy-1,2,3,3a,8,8a-hexahydroindeno[1,2-c]-pyrrole hydrobromide] gave an IC50 of 1840 nM. Besides, in assay [2] (30 mg/kg p.o.), the “In Vivo Data SHR (mpk, p.o. dose)” value is reported as -23% at 30 mg/kg.

As for `COc1cccc2c1C1CN(CCCCN3C(=O)CC(C)(C)CC3=O)CC1C2` (centres unmarked) [Example 23, 2-(4-(3,3-dimethyl)glutarimidyl)butyl-4-methoxy-1,2,3,3a,8,8a-hexahydroindeno-[1,2-c]pyrrole hydrochloride], in assay [1], the IC50 worked out at 1730 nM. Further, the “In Vivo Data SHR (mpk, p.o. dose)” value in assay [2] (30 mg/kg p.o.) is given as -12% at 30 mg/kg.

As for `COc1cccc2c1C1CN(CCCCN3C(=O)c4ccccc4S3(=O)=O)CC1C2` (centres unmarked) [Example 21, 4-Methoxy-2-(4-(2-(1,2-benzisothiazolin-3-one1,1-dioxide))butyl)1,2,3,3a,8,8a-hexahydroindeno-[1,2-c]pyrrole hydrochloride], in assay [1], the IC50 worked out at 438 nM. Besides, the entries for the “In Vivo Data SHR (mpk, p.o. dose)” value in assay [2] (10 mg/kg p.o.) and in assay [2] (30 mg/kg p.o.) were -16% and -28%, respectively.

Molecule `COc1cccc2c1[C@H]1CCN(CCCCN3C(=O)c4ccccc4S3(=O)=O)C[C@@H]1C2` (relative stereo) [Example 57, trans-2(4-(2-(1,2-benzisothiazolin-3-one-1,1-dioxyde))butyl)-5-methoxy-2,3,4,4a,9,9a-hexahydro-1H-indeno[2,1-c]pyridine hydrochloride] displayed an IC50 in assay [1] of 26 nM. Also, in assay [2] (30 mg/kg p.o.), the “In Vivo Data SHR (mpk, p.o. dose)” value is -17% at 30 mg/kg.

As for `COc1cccc2c1C1CN(C/C=C\CN3C(=O)CC4(CCCC4)CC3=O)CC1C2` (stereo not drawn) [Example 29, 2-(4-(3,3-tetramethylene)glutarimidyl)-cis-but-2-enyl-4-methoxy-1,2,3,3a,8,8a-hexahydroindeno [1,2-c] pyrrole hydrochloride], the IC50 in assay [1] was found to be 3630 nM. Moreover, the “In Vivo Data SHR (mpk, p.o. dose)” value in assay [2] (30 mg/kg p.o.) is -19% at 30 mg/kg.

For the molecule `COc1cccc2c1C1CN(CCCCN3C(=O)C4C5C=CC(C6C=CC65)C4C3=O)CC1C2` (centres unmarked) [Example 54, 4-Methoxy-2-(4-(3a,4,4a,6a,7,7a-hexahydro-4,7-etheno-1H-cyclobut[flisoindol-1,3-dionyl)-butyl)-1,2,3,3a,8,8a-hexahydroindeno-[1,2-c]pyrrole hydrochloride], the IC50 in assay [1] was found to be 283 nM. This counts as sub-micromolar.

`COc1cccc2c1[C@H]1CCN(CCCCN3C(=O)CC4(CCCC4)CC3=O)C[C@@H]1C2` (relative stereo) [Example 51, trans-2-(4-(3,3-tetramethylene)glutarimidyl)butyl-5-methoxy-2,3,4,4a,9,9a-hexahydro-1H-indeno [2,1-c] pyridine hydrochloride]: the IC50 in assay [1] was 60 nM. The “In Vivo Data SHR (mpk, p.o. dose)” value in assay [2] (30 mg/kg p.o.) is given as -36% at 30 mg/kg.

`COc1cccc2c1[C@H]1CCN(CCCN3C(=O)c4ccccc4S3(=O)=O)C[C@@H]1C2` (relative stereo) [Example 56, trans-2(3-(2-(1,2-benzisothiazolin-3-one-1,1-dioxyde))propyl)-5-methoxy-2,3,4,4a,9,9a-hexahydro-1 H-indeno[2,1-c]pyridine hydrochloride] yielded an IC50 in assay [1] of 22 nM. In assay [2] (10 mg/kg p.o.), the “In Vivo Data SHR (mpk, p.o. dose)” value was -18% at 10 mg/kg.

In assay [1], `COc1cccc2c1C1CN(CCCCN3C(=O)c4ccccc4C3=O)CC1C2` (centres unmarked) [Example 24, 4-Methoxy-2-(4-(2-phthalimido)butyl)-1,2,3,3a,8,8a-hexahydroindeno[1,2-c]pyrrole hydrochloride] came in with an IC50 of 404 nM.

Regarding `COc1c(Cl)ccc2c1C1CN(CCCCN3C(=O)CC4(CCCC4)CC3=O)CC1C2` (centres unmarked) [Example 8, 2-(4-(3,3-tetramethylene)glutarimidyl)butyl-5-chroro-4-methoxy-1,2,3,3a,8,8a-hexahydroindeno[1,2-c] pyrrole hydrochloride], the IC50 in assay [1] was 714 nM. Further, the “In Vivo Data SHR (mpk, p.o. dose)” value in assay [2] (30 mg/kg p.o.) was -37% at 30 mg/kg.
